“And” between values parts separate entries of the source, which are not always exact repeats. Equal entries are not always repeated. “Also recorded” adds a separate entry of the source. Where two headings read alike, the source gives them in different places.
What was measured:
[1] = tested on: sciatic nerve; experiment: Rat sciatic nerve block: motor axon blockade (weight-bearing test); type: in vivo, Sprague-Dawley rats
[2] = tested on: sciatic nerve; experiment: Rat sciatic nerve block: nociceptive axon blockade (hotplate thermal latency); type: in vivo, Sprague-Dawley rats
[3] = tested on: sciatic nerve; details: rat, in vivo
[4] = tested on: rats; details: rat, in vivo
[5] = tested on: sciatic nerves and surrounding tissues; details: rat, in vivo
[6] = tested on: rats; details: rat, in vivo; remark: listed apart in the source
[7] = tested on: Esterase (from porcine liver); details: pig
[8] = target: GLUT1 (Homo sapiens, UniProt P11166); details: cited from earlier work
Chain of GLUT1 (P11166 whole entry, species assumed): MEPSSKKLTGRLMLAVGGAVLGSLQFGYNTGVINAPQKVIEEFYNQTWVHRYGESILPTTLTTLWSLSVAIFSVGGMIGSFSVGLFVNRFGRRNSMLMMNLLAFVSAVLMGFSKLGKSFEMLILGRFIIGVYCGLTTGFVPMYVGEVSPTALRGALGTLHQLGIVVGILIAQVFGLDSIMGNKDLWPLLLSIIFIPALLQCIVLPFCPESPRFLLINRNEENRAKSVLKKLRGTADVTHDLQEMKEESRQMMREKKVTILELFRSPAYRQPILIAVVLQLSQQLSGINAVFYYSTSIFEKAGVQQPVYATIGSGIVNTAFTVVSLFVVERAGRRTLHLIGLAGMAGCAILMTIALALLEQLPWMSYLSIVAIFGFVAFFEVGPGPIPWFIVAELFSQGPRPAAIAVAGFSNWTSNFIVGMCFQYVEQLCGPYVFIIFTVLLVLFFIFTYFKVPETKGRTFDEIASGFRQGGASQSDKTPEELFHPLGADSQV

[9] = target: GLUT3 (Homo sapiens, UniProt P11169); details: read-out: Km for GLUT3; cited from earlier work
Chain of GLUT3 (P11169 whole entry, species assumed): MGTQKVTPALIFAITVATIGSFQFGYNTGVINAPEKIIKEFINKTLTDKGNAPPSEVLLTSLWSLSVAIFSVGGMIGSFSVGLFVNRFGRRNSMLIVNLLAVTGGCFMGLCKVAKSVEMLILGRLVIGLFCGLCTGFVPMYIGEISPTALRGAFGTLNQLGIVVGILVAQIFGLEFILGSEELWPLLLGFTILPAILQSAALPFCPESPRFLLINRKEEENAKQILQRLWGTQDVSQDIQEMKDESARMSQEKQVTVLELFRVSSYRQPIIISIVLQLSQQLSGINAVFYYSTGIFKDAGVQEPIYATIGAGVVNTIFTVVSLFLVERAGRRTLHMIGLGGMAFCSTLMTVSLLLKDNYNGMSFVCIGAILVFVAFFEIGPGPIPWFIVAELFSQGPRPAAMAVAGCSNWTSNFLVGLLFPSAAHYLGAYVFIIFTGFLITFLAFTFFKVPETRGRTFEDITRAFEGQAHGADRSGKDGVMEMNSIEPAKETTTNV

[10] = Log P; details: octanol/water
[11] = read-out: Km (transporter protein affinity for sugar molecules)

glucuronic acid-linked bupivacaine [GluA-Bup]
duration of motor deficits / motor involvement ([1]; rat, in vivo): 1.625 ± 0.25 h | motor deficits ([1]; rat, in vivo): without any motor deficits | mean duration of sensory block ([2]; rat, in vivo): 13.0 ± 2.58 h | mean duration of sensory blockade ([2]; rat, in vivo): 3.75 ± 0.50 h | sensory block success ([2]; rat, in vivo): 100% | successful sensory blockade ([2]; rat, in vivo): 100%

galactosamine-fluorescein [Gal-FL]
mean fluorescent intensity in epineurium/perineurium and inside the nerve [3]: significantly higher

COc1cc(CNC(=O)CCCC/C=C/C(C)C)ccc1OC[C@H]1OC(O)[C@H](O)[C@@H](O)[C@H]1O (stereo partly shown) [Gal-CAP prodrug, galactose-capsaicin prodrug]
frequency of licking within 5 minutes after injection [4]: 1±1.41 times | total duration of licking behavior [4]: 4.55 ± 5.77 s

galactose-capsaicin prodrug
motor deficits in the injected hind limb ([1]; rat, in vivo): did not produce any motor deficits | appearance of surrounding tissues at dissection [5]: did not appear edematous or discolored | microscopic examination for myotoxicity or inflammation [5]: did not reveal significant myotoxicity or inflammation | toluidine blue stained sciatic nerve sections [5]: normal in appearance without evidence of demyelination or axonal degeneration | change of nociceptive axon block duration with increasing glucose dose ([2]; rat, in vivo): decrease in nociceptive axon block duration; also recorded: significant decrease | duration of nociceptive axon blockade ([2]; rat, in vivo): 150.0 ± 76.8 h and 234 ± 36 h | successful analgesic block (thermal paw withdrawal latencies >7 seconds) ([2]; rat, in vivo): 100% | capsaicin-related side effects (spontaneous pain behavior, contralateral block, irreversible block, seizure, acute respiratory distress) [6]: did not cause any capsaicin-related side effects

galacturonic acid-capsaicin prodrug [GalA-CAP prodrug]
frequency of licking within 5 minutes after injection [4]: 1±0 times | total duration of licking behavior [4]: 4.28 ± 5.81 s | motor deficits in the injected hind limb ([1]; rat, in vivo): did not produce any motor deficits | Myotoxicity Score (median; range 0-6) [5]: 0 | appearance of surrounding tissues at dissection [5]: did not appear edematous or discolored | myotoxicity score, median for all groups [5]: 0 | unmyelinated C-fibers / axon diameter by TEM [5]: not significantly increased | change of nociceptive axon block duration with increasing glucose dose ([2]; rat, in vivo): significantly reduced with increasing glucose dose | duration of nociceptive axon blockade ([2]; rat, in vivo): 150.0 ± 76.8 h and 234 ± 37 h and 150 ± 76.84 h | successful analgesic block (thermal paw withdrawal latencies >7 seconds) ([2]; rat, in vivo): 100% | time to restoration of full thermal stimulus sensitivity (return to baseline thermal latency) ([2]; rat, in vivo): 13 days | capsaicin-related side effects (spontaneous pain behavior, contralateral block, irreversible block, seizure, acute respiratory distress) [6]: did not cause any capsaicin-related side effects | seizures observed (systemic toxicity) [6]: 2 out of 4 | Half-lives [7]: <10 min

O=C1O[C@H]([C@@H](O)CO)C(=O)C1=O [DHA, dehydroascorbic acid]
Km [8, 11]: 1.1 mM

glycine-capsaicin prodrug [Gly-CAP prodrug]
duration of nociceptive axon blockade ([2]; rat, in vivo): 17.33 ± 11.55 h | successful nociceptive axon blockade ([2]; rat, in vivo): 100%

N[C@H]1C(O)O[C@H](CO)[C@@H](O)[C@@H]1O (stereo partly shown) [glucosamine]
Km [8, 11]: 2.5 mM

O=C[C@H](O)[C@@H](O)[C@@H](O)[C@H](O)CO [galactose]
Km [9]: 8.5 mM | Km [8, 11]: 15 mM | Km ([8]; read-out: Km for GLUT1): 17 mM

COc1cc(CNC(=O)CCCC/C=C/C(C)C)ccc1O [capsaicin]
logP [10]: 3.66 | motor deficits in the injected hind limb ([1]; 0.5-3 mg in 0.3 mL at sciatic nerve): did not produce any motor deficits | motor deficits in the injected hind limb ([1]; Example 4, doses in μmol, 0.3 mL PBS): did not produce any motor deficits | successful analgesic block (thermal paw withdrawal latencies >7 seconds) ([2]; injection doses above 3.28 μmol): 100% | successful analgesic block (thermal paw withdrawal latencies >7 seconds) ([2]; injection doses above 1 mg, 0.3 mL at left sciatic nerve): 100% | duration of nociceptive axon block ([2]; injection of 6.56 μmol): 4.0 ± 2.0 h | duration of nociceptive axon blockade ([2]; single injection of 2 mg in 0.3 mL at sciatic nerve): 4 ± 2 h | duration of nociceptive axon blockade ([2]; single injection of 3 mg in 0.3 mL at sciatic nerve): 30 ± 12 h | rats that developed acute respiratory distress ([6]; male, Sprague-Dawley): 75% | rats that developed contralateral nociceptive axon block ([6]; male, Sprague-Dawley): 50% | rats that experienced a seizure ([6]; male, Sprague-Dawley): 25% | rats with irreversible nociceptive axon blockade in the injected hind limb ([6]; male, Sprague-Dawley): 25% | rats exhibiting at least one systemic adverse effect [6]: all rats

CCCCN1CCCCC1C(=O)Nc1c(C)cccc1C (stereo not shown) [bupivacaine, reference compound]
duration of motor deficits / motor involvement ([1]; 17.3 mM in 0.3 mL PBS): 1.375 ± 0.48 h | successful sensory blockade ([2]; 8.65 mM in 0.3 mL PBS): failed to achieve a successful block | mean duration of sensory block ([2]; 17.3 mM in 0.3 mL PBS): 1.75 ± 0.29 h | sensory block success ([2]; 17.3 mM in 0.3 mL PBS): 100%
